Laboratory results: patent publication US11945812B2, “Annulated 2-amino-3-cyano thiophenes and derivatives for the treatment of cancer” (Boehringer Ingelheim International GmbH, priority 2020, dated 2024)
Where two headings read alike, the source gives them in different places.

What was measured:
[1] = biological target: Ba/F3 cells bearing a KRAS G12C mutation (Homo sapiens, UniProt P01116, G12C, cells depend on it); assay: Ba/F3 cell model proliferation assay (AlamarBlue, 72 h); assay type: cell-based
Ba/F3 cells bearing a KRAS G12C mutation, sequence (P01116 whole entry G12C): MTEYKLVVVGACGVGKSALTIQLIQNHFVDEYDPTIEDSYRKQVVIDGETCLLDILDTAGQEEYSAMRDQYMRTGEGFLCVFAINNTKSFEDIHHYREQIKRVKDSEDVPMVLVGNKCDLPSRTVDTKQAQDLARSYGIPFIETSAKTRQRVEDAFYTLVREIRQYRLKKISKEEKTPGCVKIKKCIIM
Method: Ba/F3 Cell Model Generation and Proliferation Assay
Plasmids containing KRASG12 mutants were obtained from GeneScript. To generate KRASG12-dependent Ba/F3 models, Ba/F3 cells were transduced with retroviruses containing vectors that harbor KRASG12 isoforms. Platinum-E cells (Cell Biolabs) were used for retrovirus packaging. Retrovirus was added to Ba/F3 cells. To ensure infection, 4 μg/mL polybrene was added and cells were spinfected. […] Cells with an infection efficiency of 10% to 20% were further cultivated and puromycin selection with 1 μg/mL was initiated. As a control, parental Ba/F3 cells were used to show selection status. Selection was considered successful when parental Ba/F3 cells cultures died. To evaluate the transforming potential of KRASG12 mutations, the growth medium was no longer supplemented with IL-3. Ba/F3 cells harboring the empty vector were used as a control. Approximately ten days before conducting the experiments, puromycin was left out.
All treatments were performed in technical duplicates. The assay is run using a fully automated robotic system. Treated cells were incubated for 72 h at 37° C. with 5% CO2. AlamarBlue™ (ThermoFisher), a viability stain, was added and fluorescence measured in the PerkinElmer Envision HTS Multilabel Reader.

[2] = Plasma protein binding (equilibrium dialysis), human plasma; assay type: in vitro ADME; conditions: read-out: PPB human fu
Method: Plasma Protein Binding (PPB)
Binding of test compound to plasma was determined using equilibrium dialysis (ED) and quantitative mass spectrometry interfaced with liquid chromatography (LC-MS). In brief, ED was performed with dialysis devices consisting of two chambers separated by a semipermeable membrane with a molecular weight cut-off of 5-10 kg/mol. One chamber was filled with commercially sourced plasma (mouse and human plasma, respectively) or serum (10% FCS in PBS) containing 1-10 μmol/L test compound and the other chamber was filled with phosphate-buffer saline (PBS) with or without dextran. The dialysis chamber was incubated for 3-5 hours at 37° C. After incubation, protein was precipitated from aliquots of each chamber and the concentration of test compound in the supernatant of the plasma-containing compartment (cplasma) and of the buffer-containing compartment (Cbuffer) was determined by LC-MS. The fraction of unbound test compound (not bound to plasma) (fu) was calculated according to the following equation: […]

[3] = system: SW837 cells; assay: SW837 CTG proliferation assay (CRC); assay type: cell-based; conditions: Homo sapiens; SW837 CTG proliferation; read-out: IC50 SW837
Method: SW837 CTG Proliferation Assay (CRC)
SW837 cells (ATCC #CCL-235) were grown in cell culture flasks (175 cm^2) using L-15 10% FCS, 1% L-Glu, 1×NEAA and 1×Na-Pyrovat. Cultures were incubated at 37° C. and 0% CO2 in a humidified atmosphere, with medium change or subcultivation 2-3 times a week. Materials used for the assay were CulturPlate-384, White Opaque 384-well Microplate, Sterile and Tissue Culture Treated (Perkin Elmer #6007680), Leibovitz L15 Medium and FBS # SH30071.03 (HyClone).
The proliferation assays started (day1) with seeding cells in flat bottom 384 well microtiter plates in 90 μL L-15 10% FCS, 1% L-Glu, 1×NEAA and 1× Na-Pyrovat at a density of 500 cells/well. Any other luminescence compatible plate format is possible. On day 2, 10 μL dilutions of the test compounds covering a concentration range between app. 0, 1 and 10.000 nM were added to the cells. Cells were incubated for 5 days in a humidified, CO2 controlled (no CO2) incubator at 37° C. On day 7 100 μL of Cell Titer Glow reagent (Cell titer Glo Luminescent Cat. No. G7571, Promega) were added to each well and incubated for additional 10 min at room temperature (with agitation). Luminescence was measured on a Wallac Victor using standard luminescence read out. IC50 values were calculated using standard Levenburg Marquard algorithms (GraphPad Prism).

[4] = Ba/F3 KRAS G12C cells, 72 h, 10% FCS, uncorrected, read-out: IC50 Ba/F3 KRASG12C
[5] = corrected by plasma protein binding in 10% FCS (fraction unbound), read-out: IC50 Ba/F3 KRASG12C (corrected)

SMILES	GI50 [1, 4]	GI50 [1, 5]	fraction unbound [2]	IC50 [3]
C=CC(=O)N1CCN(c2cc(O[C@@H](C)[C@@H]3CCCN3C)nc(-c3cc([C@@]4(C)CCCc5sc(N)c(C#N)c54)no3)n2)CC12CC2 [Ic-3]	5.5 nM	0.6 nM	0.028	10.6 nM
C=CC(=O)N1CCN(c2cc(O[C@@H](C)[C@@H]3CCCN3C)nc(-c3cc([C@@]4(C)CCCc5sc(N)c(C#N)c54)on3)n2)CC12CC2 [Ib-5]	3.8 nM	0.22 nM	0.019	15.8 nM
C=C(F)C(=O)N1CCN(c2cc(O[C@@H](C)[C@@H]3CCCN3C)nc(-c3cc([C@@]4(C)CCCc5sc(N)c(C#N)c54)on3)n2)[C@H](C)C1 [Ib-10]	13.1 nM	0.83 nM	0.013	14.9 nM
C=CC(=O)N1CCN(c2cc(O[C@@H](C)[C@@H]3CCCN3C)nc(-c3cc([C@@]4(C)CCCc5sc(N)c(C#N)c54)sn3)n2)CC12CC2 [Id-5]	3.2 nM	1.08 nM		0.8 nM
C=C(F)C(=O)N1[C@@H](C)CN(c2cc(O[C@@H](C)[C@@H]3CCCN3C)nc(-c3cc([C@@]4(C)CCCc5sc(N)c(C#N)c54)no3)n2)C[C@@H]1C [Ic-8]	35.6 nM	2.78 nM		36.6 nM
C=C(F)C(=O)N1[C@@H](C)CN(c2cc(O[C@@H](C)[C@@H]3CCCN3C)nc(-c3cc([C@@]4(C)CCCc5sc(N)c(C#N)c54)on3)n2)C[C@@H]1C [Ib-11]	12.6 nM	0.57 nM		5.63 nM
C=CC(=O)N1CCC(Oc2cc(O[C@@H](C)[C@@H]3CCCN3C)nc(-c3cc([C@@]4(C)CCCc5sc(N)c(C#N)c54)sn3)n2)CC1 [Id-6]	0.2 nM	0.1 nM		0.35 nM
C=CC(=O)N1[C@@H](C)CN(c2cc(O[C@@H](C)[C@@H]3CCCN3C)nc(-c3cc([C@@]4(C)CCCc5sc(N)c(C#N)c54)no3)n2)C[C@@H]1C [Ic-4]	1.8 nM	0.15 nM	0.027	1.62 nM
C=CC(=O)N1[C@@H](C)CN(c2cc(O[C@@H](C)[C@@H]3CCCN3C)nc(-c3cc([C@@]4(C)CCCc5sc(N)c(C#N)c54)sn3)n2)C[C@@H]1C [Id-4]	1.3 nM	0.48 nM	0.014	0.68 nM
C=CC(=O)N1CCN(c2cc(O[C@@H](C)[C@@H]3CCCN3C)nc(-c3cc(C4(C)CCCc5sc(N)c(C#N)c54)on3)n2)CC1 (stereo partly shown) [Ib-6]	1.6 nM	0.27 nM	0.059	< 1 nM
C=CC(=O)N1CCN(c2cc(O[C@@H](C)[C@@H]3CCCN3C)nc(-c3cc([C@@]4(C)CCCc5sc(N)c(C#N)c54)on3)n2)[C@H](C)C1 [Ib-1]	1.8 nM	0.14 nM	0.032	0.67 nM
C=CC(=O)N1CCC(Oc2cc(N3CCN(C)C[C@@H]3C)nc(-c3cc(C4(C)CCCc5sc(N)c(C#N)c54)no3)n2)CC1 (stereo partly shown) [Ic-7]	35.3 nM	8.9 nM	0.02	44.7 nM
COC/C=C/C(=O)N1CCN(c2cc(O[C@@H](C)[C@@H]3CCCN3C)nc(-c3cc([C@@]4(C)CCCc5sc(N)c(C#N)c54)on3)n2)[C@H](C)C1 [Ib-14]	16 nM	1.06 nM	0.016	11.3 nM
C=CC(=O)N1[C@H](C)CN(c2cc(O[C@@H](C)[C@@H]3CCCN3C)nc(-c3cc([C@@]4(C)CCCc5sc(N)c(C#N)c54)sn3)n2)C[C@@H]1C [Id-2]	2 nM	0.87 nM	0.009	1.09 nM
C=CC(=O)N1[C@@H](C)CN(c2cc(O[C@@H](C)[C@@H]3CCCN3C)nc(-c3cc([C@@]4(C)CCCc5sc(N)c(C#N)c54)on3)n2)C[C@@H]1C [Ib-4]	1.7 nM	0.09 nM	0.021	0.69 nM
C=CC(=O)N1CCN(c2cc(O[C@@H](C)[C@@H]3CCCN3C)nc(-c3cc([C@@]4(C)CCCc5sc(N)c(C#N)c54)sn3)n2)CC1 [Id-1]	0.4 nM	0.19 nM		0.2 nM
COC/C=C/C(=O)N1CCN(c2cc(O[C@@H](C)[C@@H]3CCCN3C)nc(-c3cc(C4(C)CCCc5sc(N)c(C#N)c54)no3)n2)CC1 (stereo partly shown) [Ic-9]	87 nM	22.5 nM	0.043	124 nM
C=CC(=O)N1[C@H](C)CN(c2cc(O[C@@H](C)[C@@H]3CCCN3C)nc(-c3cc([C@@]4(C)CCCc5sc(N)c(C#N)c54)no3)n2)C[C@@H]1C [Ic-5]	6.7 nM	0.99 nM	0.02	7.15 nM
